In experiment [1] the target is T1, SFRP-1 (Homo sapiens, UniProt Q8N474).
T1 sequence (Q8N474 32-314): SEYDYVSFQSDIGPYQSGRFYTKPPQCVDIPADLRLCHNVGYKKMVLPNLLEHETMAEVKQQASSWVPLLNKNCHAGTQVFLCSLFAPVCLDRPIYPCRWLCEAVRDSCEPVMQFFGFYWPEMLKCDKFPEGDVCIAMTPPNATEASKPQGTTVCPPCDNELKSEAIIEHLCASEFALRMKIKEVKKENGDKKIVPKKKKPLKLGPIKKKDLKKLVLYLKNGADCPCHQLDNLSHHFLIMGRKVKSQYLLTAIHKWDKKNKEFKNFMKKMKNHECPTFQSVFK
The experiment is described as follows: Fluorescence polarization binding assay (competitive displacement of a probe compound from SFRP-1).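 Further: test compound competes with a fluorescent probe held by SFRP-1, seen as a drop in probe anisotropy after incubation in darkness, with anisotropy as function of rising compound dose.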 The settings on record: fluorescence anisotropy, 45 nM SFRP-1, 20 nM probe.

Experiment [2] concerns the target T1, SFRP-1. The experiment is described as follows: Cell-based assay for in vitro measurement of SFRP-1/SARP2 antagonist activity (U2OS cells co-transfected with 16x TCF-tk-Luciferase reporter, Wnt and hSFRP-1).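 Further: U2OS cells co-transfected with a TCF-tk luciferase reporter, a Wnt vector, hSFRP-1 or empty vector and CMV-βgal, luciferase luminescence read in cell lysates alongside βgal activity.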 The note with it: U2OS. A general note: In a reporter assay the amount or activity of a reporter protein is the signal.
Setting [3] is: read-out: Fold Induction with SFRP-1, Conc 15 μM, with SFRP-1, fold induction over SFRP-1 control, single dose.
The mark [4] stands for this setting: read-out: Fold Induction without SFRP-1, Conc 15 μM, without SFRP-1, single dose.

The results in this text go back to patent US20060276464A1, “Diarylsulfone sulfonamides and use thereof” (Wyeth, priority 2005, published 2006).

pIC50: −log10 of the molar value. “And” between values parts separate entries of the source, which are not always exact repeats. Equal values may be shown once. Read-outs that look alike come from different tables or passages of the source.

Broadly, the pIC50 is the IC50 on a negative log10 scale, so that one unit is a factor of ten. As to `Cc1ccc(S(=O)(=O)c2ccc(C(C)(C)C)cc2)cc1S(=O)(=O)NC1CCOCC1` [Example 440, 5-[(4-tert-butylphenyl)sulfonyl]-2-methyl-N-(tetrahydro-2H-pyran-4-yl)benzenesulfonamide], the negative-log IC50 (pIC50) on SFRP-1 [1] was 5.52. Moreover, the fold induction at 15 µM at SFRP-1 [2] (setting [3]) was 1.8; at SFRP-1 [2] (setting [4]), 1.1.
On to `CC(C)c1ccc(S(=O)(=O)c2ccc(F)cc2)cc1S(=O)(=O)NCCc1c[nH]cn1` [Example 442, 5-[(4-fluorophenyl)sulfonyl]-N-[2-(1H-imidazol-4-yl)ethyl]-2-isopropylbenzenesulfonamide], for which the negative logarithm of the IC50 (pIC50) at SFRP-1 [1] was 6.00. Moreover, the fold induction at 15 µM at SFRP-1 [2] (setting [3]) turned out to be 3.9; on SFRP-1 [2] (setting [4]), 1.
`CC(C)c1ccc(S(=O)(=O)c2ccc(F)cc2)cc1S(=O)(=O)NC[C@H](C)c1ccccc1` [Example 443, 5-[(4-fluorophenyl)sulfonyl]-2-isopropyl-N-[(2R)-2-phenylpropyl]benzenesulfonamide]: the pIC50 on SFRP-1 [1] was 6.22. Besides, the fold induction at 15 µM on SFRP-1 [2] (setting [3]) was determined as 2.5; at SFRP-1 [2] (setting [4]), 1.1.
Taken in the same sequence, the figures for `CC(C)c1ccc(S(=O)(=O)c2ccc(F)cc2)cc1S(=O)(=O)NCC1CCOCC1` [Example 445, 5-[(4-fluorophenyl)sulfonyl]-2-isopropyl-N-(tetrahydro-2H-pyran-4-ylmethyl)benzenesulfonamide] were 5.96, 2.9 and 1.2.
Taken in the same sequence, the figures for `Cc1ccc(S(=O)(=O)c2ccccc2)cc1S(=O)(=O)NC1CCN(C(=O)OC(C)(C)C)CC1` [Example 446, tert-butyl 4-({[2-methyl-5-(phenylsulfonyl)phenyl]sulfonyl}amino)piperidine-1-carboxylate] were 5.70, 2.3 and 1.1.
Regarding `Cc1ccc(S(=O)(=O)c2ccccc2)cc1S(=O)(=O)NC1CCN(S(=O)(=O)c2ccccc2)CC1` [Example 448, 2-methyl-5-(phenylsulfonyl)-N-[1-(phenylsulfonyl)piperidin-4-yl]benzenesulfonamide], the pIC50 at SFRP-1 [1] was 6.92 and 6.77. Besides, the fold induction at 15 µM at SFRP-1 [2] (setting [3]) was 2; at SFRP-1 [2] (setting [4]), 1.2.
At SFRP-1 [1], `Cc1ccc(S(=O)(=O)c2ccccc2)cc1S(=O)(=O)NC1CCN(C(=O)c2ccco2)CC1` [Example 449, N-[1-(2-furoyl)piperidin-4-yl]-2-methyl-5-(phenylsulfonyl)benzenesulfonamide] showed a pIC50 of 5.52. The fold induction at 15 µM was 2.8 at SFRP-1 [2] (setting [3]) and 1.1 at SFRP-1 [2] (setting [4]).
As to `CC(C)c1ccc(S(=O)(=O)c2ccc(NCCC#N)cc2)cc1S(=O)(=O)NCCn1ccnc1` [Example 450, 5-({4-[(2-cyanoethyl)amino]phenyl}sulfonyl)-N-[2-(1H-imidazol-1-yl)ethyl]-2-isopropylbenzenesulfonamide], the pIC50 on SFRP-1 [1] is 6.40 and 6.70 and 6.52. The fold induction at 15 µM on SFRP-1 [2] (setting [3]) was determined as 4; on SFRP-1 [2] (setting [4]), 1.
For the molecule `CCC(O)CNc1ccc(S(=O)(=O)c2ccc(C(C)C)c(S(=O)(=O)NCCn3ccnc3)c2)cc1` (stereo not drawn) [Example 452, 5-({4-[(2-hydroxybutyl)amino]phenyl}sulfonyl)-N-[2-(1H-imidazol-1-yl)ethyl]-2-isopropylbenzenesulfonamide], the pIC50 at SFRP-1 [1] was 6.70. Besides, the fold induction at 15 µM at SFRP-1 [2] (setting [3]) is 3.8; at SFRP-1 [2] (setting [4]) it was 1.
Taken in the same sequence, the figures for `CC[C@H](C)C(CO)Nc1ccc(S(=O)(=O)c2ccc(C(C)C)c(S(=O)(=O)NCCn3ccnc3)c2)cc1` (stereo partly drawn) [Example 453, 5-[(4-{[(2S)-1-(hydroxymethyl)-2-methylbutyl]amino}phenyl)sulfonyl]-N-[2-(1H-imidazol-1-yl)ethyl]-2-isopropylbenzenesulfonamide] were 6.52, 4 and 1.1.
Taken in the same sequence, the figures for `CC(C)c1ccc(S(=O)(=O)c2cccc(Cl)c2)cc1S(=O)(=O)NCCc1ccccn1` [Example 455, 5-[(3-chlorophenyl)sulfonyl]-2-isopropyl-N-(2-pyridin-2-ylethyl)benzenesulfonamide] were 6.30, 3.2 and 1.
Take `COc1cccc(S(=O)(=O)c2ccc(C(C)C)c(S(=O)(=O)NCCc3ccccn3)c2)c1` [Example 456, 2-isopropyl-5-[(3-methoxyphenyl)sulfonyl]-N-(2-pyridin-2-ylethyl)benzenesulfonamide]: the pIC50 at SFRP-1 [1] was 6.10. For the same molecule, the fold induction at 15 µM was 3.6 on SFRP-1 [2] (setting [3]) and 1 at SFRP-1 [2] (setting [4]).
Taken in the same sequence, the figures for `COc1ccccc1S(=O)(=O)c1ccc(C(C)C)c(S(=O)(=O)NCCc2ccccn2)c1` [Example 457, 2-isopropyl-5-[(2-methoxyphenyl)sulfonyl]-N-(2-pyridin-2-ylethyl)benzenesulfonamide] were 5.96, 2.9 and 1.
For `CC(C)(C)c1ccc(S(=O)(=O)c2ccccc2)cc1S(=O)(=O)NCCc1ccccn1` [Example 461, 2-tert-butyl-5-(phenylsulfonyl)-N-(2-pyridin-2-ylethyl)benzenesulfonamide], in that order: 6.15, 1.7 and 1.
On SFRP-1 [1], `COc1ccccc1C(=O)N1CCC(NS(=O)(=O)c2cc(S(=O)(=O)c3ccccc3)ccc2C)CC1` [Example 462, N-[1-(2-methoxybenzoyl)piperidin-4-yl]-2-methyl-5-(phenylsulfonyl)benzenesulfonamide] gave a negative logarithm of the IC50 (pIC50) of 5.70. For the same molecule, the fold induction at 15 µM on SFRP-1 [2] (setting [3]) worked out at 2.9; on SFRP-1 [2] (setting [4]) it was 1.
Taken in the same sequence, the figures for `COc1cccc(C(=O)N2CCC(NS(=O)(=O)c3cc(S(=O)(=O)c4ccccc4)ccc3C)CC2)c1` [Example 463, N-[1-(3-methoxybenzoyl)piperidin-4-yl]-2-methyl-5-(phenylsulfonyl)benzenesulfonamide] were 6.15, 2.9 and 1.
For `COc1ccc(C(=O)N2CCC(NS(=O)(=O)c3cc(S(=O)(=O)c4ccccc4)ccc3C)CC2)cc1OC` [Example 464, N-[1-(3,4-dimethoxybenzoyl)piperidin-4-yl]-2-methyl-5-(phenylsulfonyl)benzenesulfonamide], in that order: 5.52, 2.1 and 1.
For the molecule `Cc1ccc(S(=O)(=O)c2ccccc2)cc1S(=O)(=O)NC1CCN(C(=O)c2cccc(C(F)(F)F)c2)CC1` [Example 465, 2-methyl-5-(phenylsulfonyl)-N-{1-[3-(trifluoromethyl)benzoyl]piperidin-4-yl}benzenesulfonamide], the negative-log IC50 (pIC50) on SFRP-1 [1] is 5.40. The fold induction at 15 µM on SFRP-1 [2] (setting [3]) stood at 1.9; on SFRP-1 [2] (setting [4]) it was 1.1.
For `Cc1ccc(S(=O)(=O)c2ccccc2)cc1S(=O)(=O)NC1CCN(C(=O)c2ccc(Cl)cc2)CC1` [Example 466, N-[1-(4-chlorobenzoyl)piperidin-4-yl]-2-methyl-5-(phenylsulfonyl)benzenesulfonamide], in that order: 5.77, 1.7 and 1.1.
The molecule `COc1ccc(C(=O)N2CCC(NS(=O)(=O)c3cc(S(=O)(=O)c4ccccc4)ccc3C)CC2)cc1` [Example 467, N-[1-(4-methoxybenzoyl)piperidin-4-yl]-2-methyl-5-(phenylsulfonyl)benzenesulfonamide] had a pIC50 at SFRP-1 [1] of 5.72. Further, the fold induction at 15 µM amounted to 2.3 at SFRP-1 [2] (setting [3]) and 1 at SFRP-1 [2] (setting [4]).
`Cc1ccc(C(=O)N2CCC(NS(=O)(=O)c3cc(S(=O)(=O)c4ccccc4)ccc3C)CC2)cc1` [Example 468, 2-methyl-N-[1-(4-methylbenzoyl)piperidin-4-yl]-5-(phenylsulfonyl)benzenesulfonamide]: on SFRP-1 [1], the negative logarithm of the IC50 (pIC50) was 6.00. In addition, the fold induction at 15 µM at SFRP-1 [2] (setting [3]) turned out to be 2; on SFRP-1 [2] (setting [4]), 1.2.
Taken in the same sequence, the figures for `Cc1ccc(S(=O)(=O)c2ccccc2)cc1S(=O)(=O)NC1CCN(C(=O)C2CCCCC2)CC1` [Example 471, N-[1-(cyclohexylcarbonyl)piperidin-4-yl]-2-methyl-5-(phenylsulfonyl)benzenesulfonamide] were 5.66, 2.1 and 1.1.
The molecule `CC(C)c1ccc(S(=O)(=O)c2cccc3c(N(C)C)cccc23)cc1S(=O)(=O)NCCc1ccccn1` [Example 474, 5-{[5-(dimethylamino)-1-naphthyl]sulfonyl}-2-isopropyl-N-(2-pyridin-2-ylethyl)benzenesulfonamide] gave a pIC50 at SFRP-1 [1] of 6.10. Further, the fold induction at 15 µM on SFRP-1 [2] (setting [3]) was 1.4; at SFRP-1 [2] (setting [4]), 1.
Consider `Cc1ccc(S(=O)(=O)c2ccccc2)cc1S(=O)(=O)NC1CCN(C(=O)c2ccc(C#N)cc2)CC1` [Example 476, N-[1-(4-cyanobenzoyl)piperidin-4-yl]-2-methyl-5-(phenylsulfonyl)benzenesulfonamide], for which the negative logarithm of the IC50 (pIC50) at SFRP-1 [1] was 5.85. The fold induction at 15 µM at SFRP-1 [2] (setting [3]) stood at 2; at SFRP-1 [2] (setting [4]), 1.
